The NIST ThermoML archive (doi:10.1021/je5009334)
Numbers after ± are expanded uncertainties.

Assay: xn = mol fraction of the nth substance listed
Settings: 101 kPa, Liquid; for speed of sound: Sing-around technique in a fixed-path interferometer; for mass density: Vibrating tube method

CC(O)CCO (stereo not given) [1,3-butanediol] + CCC(O)CO
Settings	mass density [kg/m3]	speed of sound [m/s]
298.15 K, x2 = 0	1001.82 ± 0.84	1527.8 ± 2.1
298.15 K, x2 = 0.1	1001.83 ± 0.76	1523.2 ± 2.1
298.15 K, x2 = 0.2	1001.78 ± 0.69	1517.9 ± 2
298.15 K, x2 = 0.3	1001.74 ± 0.61	1512.7 ± 1.9
298.15 K, x2 = 0.4	1001.61 ± 0.55	1507.1 ± 1.8
298.15 K, x2 = 0.5	1001.24 ± 0.48	1498.9 ± 1.7
298.15 K, x2 = 0.6	1000.94 ± 0.42	1492.2 ± 1.6
298.15 K, x2 = 0.7	1000.36 ± 0.37	1482.6 ± 1.5
298.15 K, x2 = 0.8	999.812 ± 0.32	1473.2 ± 1.4
298.15 K, x2 = 0.9	999.175 ± 0.27	1463.1 ± 1.4
303.15 K, x2 = 0	998.418 ± 0.84	1514.1 ± 2.1
303.15 K, x2 = 0.1	998.382 ± 0.76	1509 ± 2.1
303.15 K, x2 = 0.2	998.283 ± 0.68	1503.9 ± 2
303.15 K, x2 = 0.3	998.2 ± 0.61	1498.2 ± 1.9
303.15 K, x2 = 0.4	998.02 ± 0.54	1492.5 ± 1.8
303.15 K, x2 = 0.5	997.617 ± 0.48	1484.3 ± 1.7
303.15 K, x2 = 0.6	997.284 ± 0.42	1477.4 ± 1.6
303.15 K, x2 = 0.7	996.675 ± 0.37	1468 ± 1.5
303.15 K, x2 = 0.8	996.1 ± 0.32	1458.5 ± 1.4
303.15 K, x2 = 0.9	995.436 ± 0.27	1448.3 ± 1.4
308.15 K, x2 = 0	994.987 ± 0.83	1500.2 ± 2.1
308.15 K, x2 = 0.1	994.902 ± 0.75	1494.9 ± 2.1
308.15 K, x2 = 0.2	994.756 ± 0.68	1489.6 ± 2
308.15 K, x2 = 0.3	994.626 ± 0.61	1483.8 ± 1.9
308.15 K, x2 = 0.4	994.403 ± 0.54	1478 ± 1.8
308.15 K, x2 = 0.5	993.965 ± 0.48	1469.7 ± 1.7
308.15 K, x2 = 0.6	993.596 ± 0.42	1462.7 ± 1.6
308.15 K, x2 = 0.7	992.955 ± 0.37	1453.3 ± 1.5
308.15 K, x2 = 0.8	992.352 ± 0.32	1443.8 ± 1.4
308.15 K, x2 = 0.9	991.664 ± 0.27	1433.7 ± 1.3
313.15 K, x2 = 0	991.528 ± 0.83	1486.3 ± 2.1
313.15 K, x2 = 0.1	991.39 ± 0.75	1480.8 ± 2
313.15 K, x2 = 0.2	991.196 ± 0.67	1475.3 ± 2
313.15 K, x2 = 0.3	991.02 ± 0.6	1469.3 ± 1.9
313.15 K, x2 = 0.4	990.753 ± 0.54	1463.5 ± 1.8
313.15 K, x2 = 0.5	990.276 ± 0.48	1455.1 ± 1.7
313.15 K, x2 = 0.6	989.874 ± 0.42	1448 ± 1.6
313.15 K, x2 = 0.7	989.201 ± 0.37	1438.5 ± 1.5
313.15 K, x2 = 0.8	988.572 ± 0.32	1429.1 ± 1.4
313.15 K, x2 = 0.9	987.858 ± 0.27	1419 ± 1.3
318.15 K, x2 = 0	988.035 ± 0.82	1472.3 ± 2.1
318.15 K, x2 = 0.1	987.845 ± 0.74	1466.5 ± 2
318.15 K, x2 = 0.2	987.595 ± 0.67	1460.6 ± 2
318.15 K, x2 = 0.3	987.379 ± 0.6	1454.9 ± 1.9
318.15 K, x2 = 0.4	987.07 ± 0.54	1449 ± 1.8
318.15 K, x2 = 0.5	986.554 ± 0.47	1440.5 ± 1.7
318.15 K, x2 = 0.6	986.118 ± 0.42	1433.3 ± 1.6
318.15 K, x2 = 0.7	985.412 ± 0.36	1423.9 ± 1.5
318.15 K, x2 = 0.8	984.756 ± 0.32	1414.3 ± 1.4
318.15 K, x2 = 0.9	984.01 ± 0.27	1404.4 ± 1.3
323.15 K, x2 = 0	984.506 ± 0.82	1458.3 ± 2.1
323.15 K, x2 = 0.1	984.262 ± 0.74	1452.5 ± 2
323.15 K, x2 = 0.2	983.961 ± 0.67	1446.2 ± 2
323.15 K, x2 = 0.3	983.701 ± 0.6	1440.4 ± 1.9
323.15 K, x2 = 0.4	983.35 ± 0.53	1434.3 ± 1.8
323.15 K, x2 = 0.5	982.795 ± 0.47	1425.8 ± 1.7
323.15 K, x2 = 0.6	982.326 ± 0.42	1418.6 ± 1.6
323.15 K, x2 = 0.7	981.586 ± 0.36	1409.1 ± 1.5
323.15 K, x2 = 0.8	980.82 ± 0.32	1399.6 ± 1.4
323.15 K, x2 = 0.9	980.034 ± 0.27	1390.1 ± 1.3

CCC(O)CO (stereo not given) [1,2-butanediol] + CCC(C)O
Settings	mass density [kg/m3]	speed of sound [m/s]
298.15 K, x1 = 0.1	821.98 ± 0.24	1231 ± 1.2
298.15 K, x1 = 0.2	841.211 ± 0.24	1250.6 ± 1.2
298.15 K, x1 = 0.3	860.512 ± 0.24	1270.9 ± 1.2
298.15 K, x1 = 0.4	879.912 ± 0.25	1292.2 ± 1.2
298.15 K, x1 = 0.5	899.493 ± 0.25	1315.5 ± 1.2
298.15 K, x1 = 0.6	919.721 ± 0.24	1340.2 ± 1.2
298.15 K, x1 = 0.7	939.207 ± 0.24	1365.7 ± 1.3
298.15 K, x1 = 0.8	959.168 ± 0.23	1393.3 ± 1.3
298.15 K, x1 = 0.9	978.763 ± 0.23	1423.1 ± 1.3
298.15 K, x1 = 1	998.509 ± 0.23	1452.6 ± 1.3
303.15 K, x1 = 0.1	817.802 ± 0.24	1213.1 ± 1.2
303.15 K, x1 = 0.2	837.068 ± 0.24	1233.5 ± 1.2
303.15 K, x1 = 0.3	856.416 ± 0.24	1253.8 ± 1.2
303.15 K, x1 = 0.4	875.848 ± 0.25	1275.5 ± 1.2
303.15 K, x1 = 0.5	895.477 ± 0.25	1299.1 ± 1.2
303.15 K, x1 = 0.6	915.764 ± 0.25	1324.6 ± 1.2
303.15 K, x1 = 0.7	935.294 ± 0.24	1350 ± 1.2
303.15 K, x1 = 0.8	955.308 ± 0.23	1378.1 ± 1.2
303.15 K, x1 = 0.9	974.958 ± 0.23	1408.3 ± 1.3
303.15 K, x1 = 1	994.759 ± 0.23	1438.2 ± 1.3
308.15 K, x1 = 0.1	813.551 ± 0.24	1195.3 ± 1.2
308.15 K, x1 = 0.2	832.862 ± 0.24	1216 ± 1.2
308.15 K, x1 = 0.3	852.256 ± 0.24	1236.8 ± 1.2
308.15 K, x1 = 0.4	871.737 ± 0.25	1258.8 ± 1.2
308.15 K, x1 = 0.5	891.419 ± 0.25	1282.9 ± 1.2
308.15 K, x1 = 0.6	911.761 ± 0.25	1308.7 ± 1.2
308.15 K, x1 = 0.7	931.345 ± 0.24	1334.5 ± 1.2
308.15 K, x1 = 0.8	951.414 ± 0.23	1362.8 ± 1.2
308.15 K, x1 = 0.9	971.12 ± 0.23	1393.4 ± 1.2
308.15 K, x1 = 1	990.971 ± 0.23	1423.6 ± 1.3
313.15 K, x1 = 0.1	809.205 ± 0.24	1177.3 ± 1.2
313.15 K, x1 = 0.2	828.579 ± 0.24	1198.2 ± 1.2
313.15 K, x1 = 0.3	848.033 ± 0.24	1219.7 ± 1.2
313.15 K, x1 = 0.4	867.576 ± 0.25	1242.2 ± 1.2
313.15 K, x1 = 0.5	887.316 ± 0.25	1266.7 ± 1.2
313.15 K, x1 = 0.6	907.718 ± 0.25	1292.9 ± 1.2
313.15 K, x1 = 0.7	927.356 ± 0.24	1319 ± 1.2
313.15 K, x1 = 0.8	947.483 ± 0.23	1347.7 ± 1.2
313.15 K, x1 = 0.9	967.241 ± 0.23	1378.5 ± 1.2
313.15 K, x1 = 1	987.152 ± 0.23	1409.1 ± 1.3
318.15 K, x1 = 0.1	804.796 ± 0.24	1159.3 ± 1.2
318.15 K, x1 = 0.2	824.244 ± 0.24	1180.7 ± 1.2
318.15 K, x1 = 0.3	843.762 ± 0.24	1202.6 ± 1.2
318.15 K, x1 = 0.4	863.365 ± 0.25	1225.5 ± 1.2
318.15 K, x1 = 0.5	883.169 ± 0.26	1250.5 ± 1.2
318.15 K, x1 = 0.6	903.63 ± 0.25	1277 ± 1.2
318.15 K, x1 = 0.7	923.329 ± 0.24	1303.5 ± 1.2
318.15 K, x1 = 0.8	943.516 ± 0.23	1332.5 ± 1.2
318.15 K, x1 = 0.9	963.332 ± 0.23	1363.6 ± 1.2
318.15 K, x1 = 1	983.297 ± 0.23	1394.5 ± 1.2
323.15 K, x1 = 0.1	800.305 ± 0.24	1141.5 ± 1.2
323.15 K, x1 = 0.2	819.834 ± 0.24	1163.1 ± 1.2
323.15 K, x1 = 0.3	839.427 ± 0.24	1185.5 ± 1.2
323.15 K, x1 = 0.4	859.1 ± 0.25	1208.9 ± 1.2
323.15 K, x1 = 0.5	878.969 ± 0.26	1234.3 ± 1.2
323.15 K, x1 = 0.6	899.488 ± 0.25	1260.8 ± 1.2
323.15 K, x1 = 0.7	919.266 ± 0.24	1288.4 ± 1.2
323.15 K, x1 = 0.8	939.516 ± 0.24	1317.6 ± 1.2
323.15 K, x1 = 0.9	959.384 ± 0.23	1348.7 ± 1.2
323.15 K, x1 = 1	979.406 ± 0.23	1379.9 ± 1.2
